This is an account of results in ChEMBL document CHEMBL3392960, “Discovery of thienoimidazole-based HCV NS5A inhibitors. Part 1: C2-symmetric inhibitors with diyne and biphenyl linkers” (Bioorg Med Chem Lett, 2015).

The test system of series [1] is Hepatitis C virus. The experiment in a line: Antiviral activity against Hepatitis C virus genotype 1a infected in W11.8 cells assessed as decrease in NS5A expression in replicon cell after 4 days by luminescence based ELISA. The note with it: subtype 1a, W11.8, 96 h. The class given is functional, Hepacivirus hominis. On the technique in general: In antiviral work, replicon cells carry a viral genome segment that copies itself.

The subject of series [2] is Hepatitis C virus. Briefly: Antiviral activity against Hepatitis C virus genotype 1b infected in human Huh-5.2 cells assessed as decrease in HCV replicon RNA replication after 4 days by luciferase assay. The class given is functional, cell-based, Hepacivirus hominis. Conditions: Huh-5-2, 96 h.
Series [3] can be described thus: Cytotoxicity against human HuhET cells by [3H]thymidine incorporation assay. It counts as cell-based.
A short description of series [4]: Clearance in iv dosed Sprague-Dawley rat. The class given is ADME, organism-based. The note with it: in vivo.
Series [5] can be described thus: Half life in iv dosed Sprague-Dawley rat. The note with it: in vivo. It counts as ADME, organism-based.
The nature of series [6]: Volume of distribution at steady state in iv dosed Sprague-Dawley rat. It counts as ADME, organism-based. Conditions: in vivo, read-out: Vdss.

As a reminder, the EC50 is the concentration giving half of the maximal effect. The term CC50 denotes the concentration at which the toxic effect on the cells reaches its halfway point. Read a high CC50 as lower toxicity to the cells. Broadly, the clearance is the rate of elimination divided by the concentration. Higher therefore signals a high capacity for elimination. By half-life is commonly meant the time needed for the level to fall by half in the phase considered. Turning to `COC(=O)N[C@H](C(=O)N1CCC[C@H]1c1nc2sc(C#CC#Cc3cc4[nH]c([C@@H]5CCCN5C(=O)[C@@H](NC(=O)OC)C(C)C)nc4s3)cc2[nH]1)C(C)C`, the figures for the half-maximal effective concentration (EC50) in series [1] and in series [2] were 281 nM and 0.386 nM, respectively. For the same molecule, the CC50 in series [3] amounted to 6100 nM. In series [4], this molecule displayed a clearance of 8.2 mL/min/kg. The same molecule gave a half-life in series [5] of 5.2 h. Besides, the Vd in series [6] worked out at 3.3 L/kg.
For `COC(=O)N[C@H](C(=O)N1C[C@@H](C)C[C@H]1c1nc2sc(-c3ccc(-c4ccc(-c5cc6[nH]c([C@@H]7C[C@H](C)CN7C(=O)[C@@H](NC(=O)OC)C(C)C)nc6s5)cc4)cc3)cc2[nH]1)C(C)C`, the EC50 in series [1] was found to be 6 nM; in series [2], 0.006 nM. This molecule came in with a CC50 in series [3] above 20000 nM. For the same molecule, the clearance in series [4] came out at 8 mL/min/kg. Also, in series [5], the half-life was 4.5 h. Besides, the Vd in series [6] is 2.2 L/kg.
As to `COC(=O)N[C@H](C(=O)N1C[C@@H](C)C[C@H]1c1nc2sc(C#CC#Cc3cc4[nH]c([C@@H]5C[C@H](C)CN5C(=O)[C@@H](NC(=O)OC)C(C)C)nc4s3)cc2[nH]1)C(C)C`, the EC50 in series [1] was determined as 184 nM; in series [2], 0.17 nM. The CC50 in series [3] is above 20000 nM.
